For seven compounds, IC50 results are on record in BindingDB's records for doi:10.1016/j.bmc.2009.11.019 (Istituto Di Ricerche Chimiche E Biochimiche G. Ronzoni, 2010).

The structures appear in SMILES notation.

For orientation: IC50 means the concentration that inhibits the measured activity by half. High values mean lower potency, low ones higher potency.

This experiment in a line: Inhibition of integrin alphaV receptor-mediated adhesion of human PC3 cells to vitronectin after 1 hr by toluidine blue staining.

Consider `CC[C@@]1(O)C(=O)OCc2c1cc1n(c2=O)Cc2c-1nc1ccccc1c2C=NNC(=O)COCCOCCOCC(=O)NCc1ccc(C[C@@H]2NC(=O)[C@@H](Cc3ccccc3)NC(=O)[C@H](CC(=O)O)NC(=O)CNC(=O)[C@H](CCCN=C(N)N)NC2=O)cc1` [2-[(2S,5R,8S,11S)-5-benzyl-11-(3-carbamimidamidopropyl)-8-({4-[(2-{2-[2-({N'-[(1E)-[(19S)-19-ethyl-19-hydroxy-14,18-dioxo-17-oxa-3,13-diazapentacyclo[11.8.0.0^{2,11}.0^{4,9}.0^{15,20}]henicosa-1(21),2,4,6,8,10,15(20)-heptaen-10-yl]methylidene]hydrazinecarbonyl}methoxy)ethoxy]ethoxy}acetamido)methyl]phenyl}methyl)-3,6,9,12,15-pentaoxo-1,4,7,10,13-pentaazacyclopentadecan-2-yl]acetic acid], for which 4.8 µM corresponded to half-maximal inhibition (IC50).
The compound `CC[C@@]1(O)C(=O)OCc2c1cc1n(c2=O)Cc2c-1nc1ccccc1c2/C=N\OCCNC(=O)CCC[C@@H]1NC(=O)[C@@H](Cc2ccccc2)NC(=O)[C@H](CC(=O)O)NC(=O)CNC(=O)[C@H](CCCN=C(N)N)NC1=O` [2-[(2S,5R,8S,11S)-5-benzyl-11-(3-carbamimidamidopropyl)-8-{3-[(2-{[(Z)-{[(19S)-19-ethyl-19-hydroxy-14,18-dioxo-17-oxa-3,13-diazapentacyclo[11.8.0.0^{2,11}.0^{4,9}.0^{15,20}]henicosa-1(21),2,4,6,8,10,15(20)-heptaen-10-yl]methylidene}amino]oxy}ethyl)carbamoyl]propyl}-3,6,9,12,15-pentaoxo-1,4,7,10,13-pentaazacyclopentadecan-2-yl]acetic acid] yielded an IC50 of 5.8 µM.
Under `CC[C@@]1(O)C(=O)OCc2c1cc1n(c2=O)Cc2c-1nc1ccccc1c2/C=N/OCCNC(=O)COCCOCCOCC(=O)NCc1ccc(C[C@@H]2NC(=O)[C@@H](Cc3ccccc3)NC(=O)[C@H](CC(=O)O)NC(=O)CNC(=O)[C@H](CCCN=C(N)N)NC2=O)cc1` [2-[(2S,5R,8S,11S)-5-benzyl-11-(3-carbamimidamidopropyl)-8-{[4-({2-[2-(2-{[(2-{[(E)-{[(19S)-19-ethyl-19-hydroxy-14,18-dioxo-17-oxa-3,13-diazapentacyclo[11.8.0.0^{2,11}.0^{4,9}.0^{15,20}]henicosa-1(21),2,4,6,8,10,15(20)-heptaen-10-yl]methylidene}amino]oxy}ethyl)carbamoyl]methoxy}ethoxy)ethoxy]acetamido}methyl)phenyl]methyl}-3,6,9,12,15-pentaoxo-1,4,7,10,13-pentaazacyclopentadecan-2-yl]acetic acid] stands 8.3 µM; under `CC[C@@]1(O)C(=O)OCc2c1cc1n(c2=O)Cc2c-1nc1ccccc1c2CCC=NNC(=O)COCCOCCOCC(=O)NCc1ccc(C[C@@H]2NC(=O)[C@@H](Cc3ccccc3)NC(=O)[C@H](CC(=O)O)NC(=O)CNC(=O)[C@H](CCCN=C(N)N)NC2=O)cc1` [2-[(2S,5R,8S,11S)-5-benzyl-11-(3-carbamimidamidopropyl)-8-({4-[(2-{2-[2-({N'-[(1E)-3-[(19S)-19-ethyl-19-hydroxy-14,18-dioxo-17-oxa-3,13-diazapentacyclo[11.8.0.0^{2,11}.0^{4,9}.0^{15,20}]henicosa-1(21),2,4,6,8,10,15(20)-heptaen-10-yl]propylidene]hydrazinecarbonyl}methoxy)ethoxy]ethoxy}acetamido)methyl]phenyl}methyl)-3,6,9,12,15-pentaoxo-1,4,7,10,13-pentaazacyclopentadecan-2-yl]acetic acid], 11 µM; under `CC[C@@]1(O)C(=O)OCc2c1cc1n(c2=O)Cc2c-1nc1ccccc1c2/C=N/OCCNC(=O)CCC(=O)NCc1ccc(C[C@@H]2NC(=O)[C@@H](Cc3ccccc3)NC(=O)[C@H](CC(=O)O)NC(=O)CNC(=O)[C@H](CCCN=C(N)N)NC2=O)cc1` [2-[(2S,5R,8S,11S)-5-benzyl-11-(3-carbamimidamidopropyl)-8-{[4-({3-[(2-{[(E)-{[(19S)-19-ethyl-19-hydroxy-14,18-dioxo-17-oxa-3,13-diazapentacyclo[11.8.0.0^{2,11}.0^{4,9}.0^{15,20}]henicosa-1(21),2,4,6,8,10,15(20)-heptaen-10-yl]methylidene}amino]oxy}ethyl)carbamoyl]propanamido}methyl)phenyl]methyl}-3,6,9,12,15-pentaoxo-1,4,7,10,13-pentaazacyclopentadecan-2-yl]acetic acid], over 100 µM.
Compound `NNC(=O)COCCOCCOCC(=O)NCc1ccc([C@@H]2NC(=O)[C@@H](Cc3ccccc3)NC(=O)[C@H](CC(=O)O)NC(=O)CNC(=O)[C@H](CCCN=C(N)N)NC2=O)cc1` [2-((2S,5R,8S,11S)-5-benzyl-11-(3-guanidinopropyl)-8-(4-(13-hydrazinyl-3,13-dioxo-5,8,11-trioxa-2-azatridecyl)phenyl)-3,6,9,12,15-pentaoxo-1,4,7,10,13-pentaazacyclopentadecan-2-yl)acetic acid] came in with an IC50 of 15.6 µM.
`NC(N)=NCCC[C@@H]1NC(=O)C(c2ccc(CNC(=O)COCCOCCOCC(=O)O)cc2)NC(=O)[C@@H](Cc2ccccc2)NC(=O)[C@H](CC(=O)O)NC(=O)CNC1=O` (stereo partly drawn) [1-(4-((5S,11S,14R)-14-benzyl-11-(carboxymethyl)-5-(3-guanidinopropyl)-3,6,9,12,15-pentaoxo-1,4,7,10,13-pentaazacyclopentadecan-2-yl)phenyl)-3-oxo-5,8,11-trioxa-2-azatridecan-13-oic acid] had a half-inhibitory concentration (IC50) of 18.8 µM. This IC50 and that of the compound before are within 1.5-fold of each other.
